Measurements from patent US9452185B2, “Mesenchymal stem cells and supports for tissue regeneration, repair and reconstruction” (THE TEXAS A&M UNIVERSITY SYSTEM, priority 2009, dated 2016).

System: calvarial defects
Assay: Histology of 50-day calvaria (H&E, tetracycline tracing, blood vessels)
Type: in vivo, nude mice
Procedure: Histochemistry and immunocytochemistry. For β-catenin localization studies, hMSCs were stained with a cy-3 conjugated anti-β-catenin antibody and nuclei were counterstained with pico-green dye. Specimens were processed as paraffin blocks and 8 longitudinal sections were prepared, deparaffinized and rehydrated, then stained with hematoxylin and eosin. For immunocytochemistry, sections were probed with an anti-human β-2-microglobulin antibody. An upright fluorescent microscope fitted with a high performance camera (and image analysis software was employed for imaging. Tetracycline tracing of in vivo calcium deposition. The tetracycline was imaged using an upright fluorescent microscope fitted with a high performance camera and analyzed using software. Embedding, sectioning and mounting was carried out on non-decalcified material. Semi-quantitative blood vessel measurements. Calvaria were fixed, decalcified and sectioned in paraffin and stained with hematoxylin and eosin as described. Using NIS-Elements image analysis software, the surface area of blood vessels in a defined ROI was calculated and totaled. The values were expressed as the mean of total blood vessel area from 3 animals per group. […] Using NIS-Elements image analysis software, the surface area of blood vessels in the 2D ROI was calculated for each section and totaled. […]

O=C(Nc1ccccc1)c1cc([N+](=O)[O-])ccc1Cl [GW9662, 2-chloro-5-nitro-N-phenyl-benzamide]
new bone formation, histology (day 50): new bone formation was detected
ability of MSCs to initiate angiogenesis at trauma sites (day 50, blood vessels): had not affected
